# Results from the NIST ThermoML archive (doi:10.1016/j.fluid.2014.01.022).
# Numbers after ± are expanded uncertainties.
# Columns and labels:
# [1] = refractive index (Na D-line) (dimensionless); settings: 298.15 K; 101.3 kPa; Liquid; Standard Abbe refractometry
# [2] = Liquid; for mass density: 298.15 K, 101.33 kPa, Vibrating tube method; for Normal boiling temperature: Ebulliometric method (Recirculating still)
SMILES,refractive index [1],mass density [2] [kg/m3],Normal boiling temperature [2] [°C]
COCC(C)O (stereo not given) [1-methoxy-2-propanol],1.4024 ± 0.0007,916.5 ± 0.2,120.2 ± 1
COCC(C)OC(C)=O (stereo not given) [1-methoxy-2-propyl acetate],1.4 ± 0.0007,963 ± 0.2,146 ± 1
CO [methanol],1.3269 ± 0.0007,786.9 ± 0.2,64.6 ± 1
COC(C)=O [methyl ethanoate],1.3596 ± 0.0007,927.5 ± 0.2,57.2 ± 1
CC(C)O [propan-2-ol],1.375 ± 0.0007,781.4 ± 0.2,82.5 ± 1
